The record followed here is patent US12024571B2, “Anti-erythropoietin receptor peptide” (Epo-Med Inc., priority 2018, dated 2024).

Test [1] has as its system human pancreatic cancer derived AsPC-1 cells. In words: AsPC-1 cell proliferation, WST assay. It is filed as cell-based. The settings on record: 72 hours. On the procedure:
Human pancreatic cancer derived AsPC-1 cells (ECACC, 96020930) were passaged (twice/week) under the condition of 37° C. and 5% CO2-95% air using an RPMI-1640 medium (Sigma, R8758-500 ML) comprising 10% fetal bovine serum (biowest, S182H-500) and 1 mM sodium pyruvate (gibco, 11360-070). The AsPC-1 cells were collected from a culture dish using 0.05% trypsin-0.02% EDTA solution (Sigma, T4174-100 ML). The cells were suspended in the medium and then seeded on a 96-well microplate (3×10^3/0.05 mL/well). After culturing the cells overnight, a medium comprising the test compounds (total of 43 compounds, final concentration of 150 μM) was added (0.05 mL/well, 3 wells/test compound). After 72 hours, the cell proliferation capability for each well was measured by a WST assay (DOJINDO LABORATORIES, Cell Counting Kit-8), and the inhibition ratio for each test compound against the control (test compound-free well) was calculated.
A WST assay is a viable cell count measuring method, which uses water-soluble tetrazolium salt WST-8 as a coloring reagent and uses water-soluble formazan generated by reduction of WST-8 as an indicator of viable cell count. NADH produced by a dehydrogenase in a cell converts WST-8 to water-soluble formazan. Since the generated water-soluble formazan has the maximum absorbance at about 450 nm, the viable cell count is indicated by measuring the absorbance at such a wavelength region.
Human pancreatic cancer derived AsPC-1 cells (ECACC, 96020930) were cultured, collected, and seeded on a 96-well microplate (3×10^3/0.05 mL/well) in the same manner as Example 3. After culturing the cells overnight, a medium comprising the test compounds (10, 30, or 100 μM) was added (0.05 mL/well, 3 wells/test compound). After 72 hours, the cell proliferation capability for each well was measured by a WST assay (DOJINDO LABORATORIES, Cell Counting Kit-8), and the inhibition ratio for each test compound against the control (test compound-free well) was computed.

In test [2] the test system is human T cell leukemia derived ATL-2 cells. The test can be described thus: ATL-2 cell proliferation, WST assay. In kind it is cell-based. The settings on record: 150 μM, 72 hours, FIG. 39. As for the experimental part: Human T cell leukemia derived ATL-2 cells (provided by Dr. Maeda at the Kyoto University) were passaged (twice/week) under the condition of 37° C. and 5% CO2-95% air using an RPMI-1640 medium (Sigma, R8758-500 mL) comprising 10% fetal bovine serum (biowest, S182H-500). The ATL-2 cells were collected from a culture flask. The cells were suspended in the medium and then seeded on a 96-well microplate (3×10^3/0.05 mL/well). After culturing the cells overnight, a medium comprising the test compounds (total of 32 compounds, final concentration of 150 μM) was added (0.05 mL/well, 3 wells/test compound). After 72 hours, the cell proliferation capability for each well was measured by a WST assay (DOJINDO LABORATORIES, Cell Counting Kit-8), and the inhibition ratio for each test compound against the control (test compound-free well) was calculated.

Test [3] concerns human pancreatic cancer derived AsPC-1 cells. In words: Tumor growth in AsPC-1 cancer-bearing nude mouse model. It is filed as in vivo. The settings on record: intraperitoneal, 3 times daily, total 0.2 mg/day, 3 times a week for 2 weeks; FIG. 40. On the procedure:
Human pancreatic cancer derived AsPC-1 cells (ECACC, 96020930) were cultured and collected in the same manner as Example 3, suspended in the RPMI-1640 medium described above comprising 10% Matrigel (BD Bioscience, 354234), and transplanted subcutaneously to the right side on the back of a 6-week-old male nude mouse (SLC, BALB/cSlc-nu/nu) (5×10^6/0.1 mL/mouse). The length (L) and width (W) of the tumor were measured using a digital caliper. When the tumor volume (V) calculated from the formula V=L×W^2/2 reached about 150 to 200 mm^3, the mice were separated into groups and administered with test compounds (total of 8 compounds including GT-11263). Saline was administered to a control group. The compounds were administered intraperitoneally (0.1 mL/mouse, 3 to 5 mice/test compound) 3 times daily (one hour interval, a total of 0.2 mg/day), 3 times a week for 2 weeks. The tumor size and body weight were measured twice a week to monitor the status of tumor growth and the effect of the administration of test compounds.
In the same manner as Example 5, human pancreatic cancer derived AsPC-1 cells were transplanted subcutaneously to the right side on the back of a 6-week-old male nude mouse (SLC, BALB/cSlc-nu/nu) (5×10^6/0.1 mL/mouse). The length (L) and width (W) of the tumor were measured using a digital caliper. When the tumor volume (V) calculated from the formula V=L×W^2/2 reached about 150 to 200 mm^3, the mice were separated into groups and administered with test compounds (GT-11269, GT-11309, and GT-11350). Saline was administered to a control group. The compounds were administered intraperitoneally (0.1 mL/mouse, 5 mice/test compound) 3 times daily (one hour interval, a total of 0.5 mg/day), twice a week for 4 weeks. The tumor size and body weight were measured twice a week to monitor the effect of the administration of test compounds (FIG. 45).
(§1) In the same manner as Example 5, human pancreatic cancer derived AsPC-1 cells were transplanted subcutaneously to the right side on the back of a 6-week-old male nude mouse (SLC, BALB/cSlc-nu/nu), and when the tumor volume (V) reached about 150 to 200 mm^3, the mice were separated into groups and administered with test compounds (GT-11350). Saline was administered to a control group. The compounds were administered intraperitoneally (0.1 mL/mouse) 3 times daily (one hour interval, a total of 0.1 mg, 0.2 mg, or 0.4 mg/day), twice a week for 4 weeks. The tumor size and body weight were measured twice a week to monitor the effect of the dose of test compounds (FIG. 49).
as §1, with “of” for “of 0.1 mg,”, “mg/day)” for “mg,”, “once daily (0.2” for “0.4”, “administration” for “dose”, “compounds.” for “compounds (FIG. 49).”

Test [4] has as its system human liver cancer HepG2 cells. The test can be described thus: Granule leakage of HepG2 cells exposed to peptides, under a microscope. The settings on record: HepG2 cells exposed to peptide. In kind it is cell-based. The text has this:
The peptides synthesized above were exposed to human liver cancer HepG2 cells and the leakage of granules under a microscope was studied. […] In view of the above, peptides GT-11258, GT-11261, and GT-11274 were expected to have a relatively strong activity.

The subject of test [5] is human liver cancer derived HepG2 cells. The test can be described thus: Lethal effect of synthetic peptides on HepG2 cells (Trypan blue positive cell count). It is filed as cell-based. Particulars: 120, 60, 30 or 15 μM, 24 hours; FIGS. 34 to 37.

Bridge positions count the residues as written; N and C are the ends. Square brackets hold non-standard residues; d marks the D form. Peptide text beside a SMILES is read from it. * marks the point of attachment. Ala(benzothiazol-2-yl) = N[C@@H](Cc1nc2ccccc2s1)C(=O)O; Phe(3,4-F2) = N[C@@H](Cc1ccc(F)c(F)c1)C(=O)O; Phe(3-Cl) = N[C@@H](Cc1cccc(Cl)c1)C(=O)O; Phe(4-Cl) = N[C@@H](Cc1ccc(Cl)cc1)C(=O)O; Phe(4-F) = N[C@@H](Cc1ccc(F)cc1)C(=O)O; Propionyl = CCC(=O)*

For the molecule `CSCC[C@@H]1NC(=O)[C@@H]2CCCN2C(=O)CNC(=O)[C@H](Cc2ccccc2)NC(=O)[C@H](Cc2c[nH]cn2)NC(=O)[C@@H](NC(=O)[C@H](CO)NC(C)=O)CSSC[C@@H](C(=O)N[C@@H](CCCCN)C(N)=O)NC(=O)[C@H](C(C)C)NC(=O)[C@H](Cc2c[nH]c3ccccc23)NC(=O)[C@H]([C@@H](C)O)NC1=O` [GT-11269, Ac-SCHFGPMTWVCK-NH2] (Ac-SCHFGPMTWVCK-NH2; disulfide 2-11), the “proliferation inhibiting action against AsPC-1 cells (inhibition ratio against control)” value in test [1] (10, 30 or 100 μM, FIG. 43) is given as “potent proliferation inhibiting action”. Further, the “proliferation inhibiting action on ATL-2 cells (inhibition ratio against control)” value in test [2] was “potent proliferation inhibiting action”. Further, the “antitumor effect (relative tumor volume)” value in test [3] was “potent and had an early manifestation of effect”. “Ac-SCH(p-fluoro-Phe)GPLTWVCK-NH2 (Ac-SCH[Phe(4-F)]GPLTWVCK-NH2; disulfide 2-11 (inferred)) [GT-11258]”: the “leakage of granules under a microscope” value in test [4] is given as “significant granule leakage”. Consider “Ac-SCH(m-chloro-Phe)GPLTWVCK-NH2 (Ac-SCH[Phe(3-Cl)]GPLTWVCK-NH2; disulfide 2-11 (inferred)) [GT-11260]”, for which, in test [4], the “leakage of granules under a microscope” value is “relatively low degree of granule leakage”. The “HepG2 cell killing effect compared with YS12 (Trypan blue positive cells per 1 mm^2)” value in test [5] is “equivalent or greater than that of YS12”.

Regarding “Ac-SCHYGPLT(2-quinolylalanine)VCK-NH2 (Ac-SCHYGPLT[2‑quinolylalanine]VCK-NH2; disulfide 2-11 (inferred)) [GT-11308]”, in test [5], the “HepG2 cell killing effect compared with YS12 (Trypan blue positive cells per 1 mm^2)” value is recorded as “equivalent or greater than that of YS12”. Besides, the “proliferation inhibiting action on ATL-2 cells (inhibition ratio against control)” value in test [2] is listed as “potent proliferation inhibiting action”. Consider “Ac-SCH(3,4-difluoro-Phe)GPLT(2-benzothiazolylalanine)VCK-NH2 (Ac-SCH[Phe(3,4-F2)]GPLT[Ala(benzothiazol-2-yl)]VCK-NH2; disulfide 2-11 (inferred)) [GT-11305]”, for which the “HepG2 cell killing effect compared with YS12 (Trypan blue positive cells per 1 mm^2)” value in test [5] was “equivalent or greater than that of YS12”. On the same count and under the same terms, the result for “Ac-kcvwtlGGfhcs-NH2 (Ac-[dK][dC][dV][dW][dT][dL]GG[dF][dH][dC][dS]-NH2; disulfide 2-11 (inferred)) [GT-11280]” reads “equivalent or greater than that of YS12”. On to “Ac-SCHFGPLT(8-quinolylalanine)VCK-NH2 (Ac-SCHFGPLT[8‑quinolylalanine]VCK-NH2; disulfide 2-11 (inferred)) [GT-11274]”, for which the “leakage of granules under a microscope” value in test [4] was “significant granule leakage”. In addition, in test [5], the “HepG2 cell killing effect compared with YS12 (Trypan blue positive cells per 1 mm^2)” value is “equivalent or greater than that of YS12”. For “Ac-SCH(3,4-difluoro-Phe)GPLT(8-quinolylalanine)VCK-NH2 [GT-11303]”, the “HepG2 cell killing effect compared with YS12 (Trypan blue positive cells per 1 mm^2)” value in test [5] is recorded as “equivalent or greater than that of YS12”. Turning to “Ac-SCH(phenethylglycine)GPLTWVCK-NH2 (Ac-SCH[phenethylglycine]GPLTWVCK-NH2; disulfide 2-11 (inferred)) [GT-11263]”, in test [3], the “antitumor effect (relative tumor volume)” value is “potent antitumor effect”.

Take “Ac-SCH(p-fluoro-Phe)GPLT(2-benzothiazolylalanine)VCK-NH2 [GT-11307]”: the “HepG2 cell killing effect compared with YS12 (Trypan blue positive cells per 1 mm^2)” value in test [5] was “equivalent or greater than that of YS12”. The same measure, in the same setting: the same measure for “Ac-SCH(p-fluoro-Phe)GPLT(2-quinolylalanine)VCK-NH2 [GT-11306]”: “equivalent or greater than that of YS12”; for “Ac-SCHFGPATWVCK-NH2 (disulfide 2-11 (inferred)) [GT-11268]”: “equivalent or greater than that of YS12”. “Ac-SCHYGPLTWVCK-NH2 (disulfide 2-11 (inferred)) [GT-11261]”: in test [4], the “leakage of granules under a microscope” value was “significant granule leakage”. Also, in test [5], the “HepG2 cell killing effect compared with YS12 (Trypan blue positive cells per 1 mm^2)” value was “equivalent or greater than that of YS12”. With “Ac-SCH(3,4-difluoro-Phe)GPLT(2-quinolylalanine)VCK-NH2 [GT-11304]”, the “HepG2 cell killing effect compared with YS12 (Trypan blue positive cells per 1 mm^2)” value in test [5] is recorded as “equivalent or greater than that of YS12”.

As to “Ac-SCH(p-chloro-Phe)GPLTWVCK-NH2 (Ac-SCH[Phe(4-Cl)]GPLTWVCK-NH2; disulfide 2-11 (inferred)) [GT-11259]”, in test [4], the “leakage of granules under a microscope” value was “relatively low degree of granule leakage”. For the same molecule, the “HepG2 cell killing effect compared with YS12 (Trypan blue positive cells per 1 mm^2)” value in test [5] is “equivalent or greater than that of YS12”. Take “(propionyl)-SCHFGPLTWVCK-NH2 (Propionyl-SCHFGPLTWVCK-NH2; disulfide 2-11 (inferred)) [GT-11257]”: in test [1] (150 μM, FIG. 38), the “proliferation inhibiting action on AsPC-1 cells (inhibition ratio against control)” value was “potent proliferation inhibiting action”.
